This is an account of results in patent publication US20230286973A1, “PROTEIN SECRETION INHIBITORS” (KEZAR LIFE SCIENCES, priority 2020, published 2023).

Read-outs that look alike come from different tables or passages of the source.

For series [1], the system named is TNFα-FL/Gaussia Luciferase. Put plainly: Dox Induced TNFα-FL-Gluc Assay. Type of series: cell-based. To be noted: for IC50: 24 hr Dox induction, 293FRT/TO cells, read-out: 24 hr Dox Inducible TNFaFLGluc 293FRT/TO: Mean IC50; for 24 hr Dox Inducible TNFaFLGluc 293FRT/TO: TNF/PD1: ratio of TNFaFLGluc IC50 to PD1ssGluc IC50. The procedure, abridged: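 Cell line: stable Flp-In 293 T-REx, TNFα-FL(1-233)-Gaussia luciferase fusion, T-REx-inducible. Plated day -1; compounds in DMSO/media + doxycycline, 37 °C, 5% CO2. Undefined stereocentres = mixture tested.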

Series [2] in a line: Liver Microsome Stability Assay (human). Conditions: human liver microsomes, with NADPH, 1.0 uM compound.
Experimental: (§1) Stability of a compound was assessed in the presence of liver microsomes from various sources—mouse, rat, monkey and human liver microsomes. 1.0 uM compound, 0.4% DMSO in 0.1 M Potassium Phosphate with 1.0 mg/mL liver microsomes, were incubated at 37° C. with or without 1 mM NADPH. The samples were quenched at 0, and 30 minutes.
Series [3] relates to multiple myeloma cell line U266B1. Put plainly: U266 Cell Viability Assay. Type of series: cell-based, human. To be noted: Homo sapiens, U-266, 48 h, U266B1 cells, Celltiter-Glo. An outline of the steps:
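Luminescent ATP read-out (CellTiter-Glo) after 48 h compound exposure at 37° C., 5% CO2; cells maintained in RPMI 1640/10% FBS/2 mM glutamine/pen-strep, compounds diluted in DMSO/media.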

The subject of series [4] is IL-2-FL/Gaussia Luciferase. The series can be described thus: Dox Induced IL2-FL-Gluc Assay. Type of series: cell-based. Conditions: for IC50: 24 hr Dox induction, 293FRT/TO cells, read-out: 24 hr Dox Inducible IL2FLGluc 293FRT/TO: Mean IC50; for 24 hr Dox Inducible IL2FLGluc 293FRT/TO: IL2/PD1: ratio of IL2FLGluc IC50 to PD1ssGluc IC50. The procedure, abridged: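 Stable Flp-In 293 T-REx line, Tet-regulated IL-2 (aa 1-153)–Gaussia luciferase fusion; hygromycin/blasticidin selected. Plated day -1; compound + doxycycline added next day; 37° C, 5% CO2.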

Series [5] in a line: Liver Microsome Stability Assay (monkey). To be noted: monkey liver microsomes, with NADPH, 1.0 uM compound.
Experimental: as §1
The nature of series [6]: Liver Microsome Stability Assay (mouse). To be noted: mouse liver microsomes, with NADPH, 1.0 uM compound.
Experimental: as §1
In series [7] the test system is PD1-ss+10aa/Gaussia Luciferase. Put plainly: Dox-Induced PD1-ss-Gluc Assay. Conditions: 24 hr Dox induction, 293FRT/TO cells, read-out: 24 hr Dox Inducible PD1ssGluc 293FRT/TO: Mean IC50. Type of series: cell-based. The procedure, abridged:
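Compounds were added in DMSO/media with doxycycline and incubated at 37 °C, 5% CO2, on 293 T-REx cells plated one day earlier. These cells stably express, under tetracycline-regulated control, a Gaussia luciferase fused to the PD1 signal peptide plus 10 residues. Structures drawn without stereochemistry were tested as stereoisomer mixtures.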

Series [8] can be described thus: Liver Microsome Stability Assay (rat). Conditions: rat liver microsomes, with NADPH, 1.0 uM compound.
Experimental: as §1
Series [9] has as its system multiple myeloma cell line NCI-H929. Put plainly: H929 Cell Viability Assay. Type of series: cell-based, human. Conditions: Homo sapiens, NCI-H929, 48 h, NCI-H929 cells, Celltiter-Glo. An outline of the steps:
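Cells in RPMI 1640/10% FBS; compound dilutions in DMSO/media; 48 h, 37° C, 5% CO2; CellTiter-Glo luciferase readout for viability.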

In series [10] the test system is HER3-ss+4aa/Gaussia Luciferase. The series can be described thus: Dox-Induced Her3-ss-Gluc Assay. Type of series: cell-based. Conditions: 24 hr Dox induction, 293FRT/TO cells, read-out: 24 hr Dox Inducible Her3(ss + 4)Gluc 293FRT/TO: Mean IC50. An outline of the steps:
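Flp-In 293 T-REx cells, stable HER3-ss+4aa/Gaussia luciferase insert, hygromycin/blasticidin selected; plated day before; compound in DMSO/media + doxycycline; 37° C., 5% CO2.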

[11] abbreviates: '<=>' given where both are I.A.

Regarding `O=C(Nc1nc([C@H]2CCCN2c2ccc(C(F)(F)F)cc2)cs1)c1cccn1CC1CCOCC1` [Compound C91, (R)-1-((tetrahydro-2H-pyran-4-yl)methyl)-N-(4-(1-(4-(trifluoromethyl)phenyl)pyrrolidin-2-yl)thiazol-2-yl)-1H-pyrrole-2-carboxamide], the IC50 is 1.24 µM in series [1] (mean), 0.345 µM in [4] (mean), 0.0934 µM in [7] (mean) and 0.127 µM in series [10] (mean). Besides, the “24 hr Dox Inducible TNFaFLGluc 293FRT/TO: TNF/PD1” value in series [1] (setting [11]) is given as 13.3. In series [2], the “Liver Microsome Stability (Multiple Species): Human - % Remaining after 30 min w/NADPH” value came to 67.8%. The EC50 in [3] is more than 25 µM; in series [9], 4.21 µM. Besides, in series [4] (setting [11]), the “24 hr Dox Inducible IL2FLGluc 293FRT/TO: IL2/PD1” value was 3.7. Also, the “Liver Microsome Stability (Multiple Species): Monkey - % Remaining after 30 min w/NADPH” value in series [5] came out at 28.2%. Besides, in series [6], the “Liver Microsome Stability (Multiple Species): Mouse - % Remaining after 30 min w/NADPH” value came to 88.3%. In series [8], the “Liver Microsome Stability (Multiple Species): Rat - % Remaining after 30 min w/NADPH” value stood at 41.8%.

For `CC1CCCc2c(/C=C/c3csc(NC(=O)c4cccn4Cc4ccnc(F)c4)n3)ncn21` (stereo not drawn) [Compound B101, (E)-1-((2-fluoropyridin-4-yl)methyl)-N-(4-(2-(5-methyl-5,6,7,8-tetrahydroimidazo[1,5-a]pyridin-1-yl)vinyl)thiazol-2-yl)-1H-pyrrole-2-carboxamide], the IC50 in series [1] amounted to 19 µM; in series [4], 6.53 µM; in [7], 0.0116 µM; in [10], 4.28 µM. The “24 hr Dox Inducible TNFaFLGluc 293FRT/TO: TNF/PD1” value in series [1] was 1640. Further, in series [2], the “Liver Microsome Stability (Multiple Species): Human - % Remaining after 30 min w/NADPH” value was determined as 0.38%. Moreover, the EC50 in [3] stood at 19.5 µM; in [9], 15.3 µM. In series [4], the “24 hr Dox Inducible IL2FLGluc 293FRT/TO: IL2/PD1” value worked out at 560. For the same compound, the “Liver Microsome Stability (Multiple Species): Monkey - % Remaining after 30 min w/NADPH” value in series [5] was 0.25%. The “Liver Microsome Stability (Multiple Species): Mouse - % Remaining after 30 min w/NADPH” value in series [6] is on record as 6.67%. In addition, the “Liver Microsome Stability (Multiple Species): Rat - % Remaining after 30 min w/NADPH” value in series [8] stood at 2.51%.

As for `O=C(Nc1nc([C@H]2CCCN2c2ccccc2)cs1)c1cccn1CCC1CCOC1` (stereo partly drawn) [Compound C3, N-(4-((R)-1-phenylpyrrolidin-2-yl)thiazol-2-yl)-1-(2-(tetrahydrofuran-3-yl)ethyl)-1H-pyrrole-2-carboxamide], the IC50 in [1] (mean) amounted to 15.1 µM; in series [4] (mean) it was 3.04 µM; in series [7] (mean), 1.11 µM; in [10] (mean) it was 2.27 µM. For the same compound, the “24 hr Dox Inducible TNFaFLGluc 293FRT/TO: TNF/PD1” value in [1] (setting [11]) was determined as 13.5. The “Liver Microsome Stability (Multiple Species): Human - % Remaining after 30 min w/NADPH” value in series [2] stood at 16%. Further, the EC50 in [3] was more than 25 µM; in series [9], 16.3 µM. In [4] (setting [11]), the “24 hr Dox Inducible IL2FLGluc 293FRT/TO: IL2/PD1” value was 2.7. Also, the “Liver Microsome Stability (Multiple Species): Monkey - % Remaining after 30 min w/NADPH” value in [5] is on record as 8.3%. Also, the “Liver Microsome Stability (Multiple Species): Mouse - % Remaining after 30 min w/NADPH” value in series [6] is listed as 9.29%. For the same compound, in series [8], the “Liver Microsome Stability (Multiple Species): Rat - % Remaining after 30 min w/NADPH” value is listed as 4.35%.

Regarding `O=C(Nc1nc([C@H]2CCCN2c2ccccc2)cs1)c1cccn1CC1CC(F)(F)C1` [Compound C94, (R)-1-((3,3-difluorocyclobutyl)methyl)-N-(4-(1-phenylpyrrolidin-2-yl)thiazol-2-yl)-1H-pyrrole-2-carboxamide], the IC50 is more than 25 µM in series [1] (mean), 3.66 µM in series [4] (mean), 3.59 µM in [7] (mean) and 2.4 µM in series [10] (mean). Also, the “24 hr Dox Inducible TNFaFLGluc 293FRT/TO: TNF/PD1” value in series [1] (setting [11]) is reported as more than 6.97. For the same compound, the “Liver Microsome Stability (Multiple Species): Human - % Remaining after 30 min w/NADPH” value in [2] turned out to be 63.4%. The EC50 in [3] and in series [9] was more than 25 µM throughout. Moreover, the “24 hr Dox Inducible IL2FLGluc 293FRT/TO: IL2/PD1” value in [4] (setting [11]) is reported as 1. Moreover, the “Liver Microsome Stability (Multiple Species): Monkey - % Remaining after 30 min w/NADPH” value in [5] is reported as 10.6%. For the same compound, in [6], the “Liver Microsome Stability (Multiple Species): Mouse - % Remaining after 30 min w/NADPH” value came to 52.1%. Further, the “Liver Microsome Stability (Multiple Species): Rat - % Remaining after 30 min w/NADPH” value in series [8] came out at 20.7%.

Consider `CC(=O)NCc1ccc(N2CCC[C@@H]2c2csc(NC(=O)c3cccn3CC3CCOCC3)n2)cc1` [Compound C104, (R)-N-(4-(1-(4-(acetamidomethyl)phenyl)pyrrolidin-2-yl)thiazol-2-yl)-1-((tetrahydro-2H-pyran-4-yl)methyl)-1H-pyrrole-2-carboxamide], for which the IC50 in series [1] (mean) was determined as 2.41 µM; in [4] (mean) it was 0.413 µM; in series [7] (mean), 0.143 µM; in series [10] (mean), 0.35 µM. Also, the “24 hr Dox Inducible TNFaFLGluc 293FRT/TO: TNF/PD1” value in series [1] (setting [11]) is recorded as 16.8. Moreover, the “Liver Microsome Stability (Multiple Species): Human - % Remaining after 30 min w/NADPH” value in series [2] was 3.01%. Also, the results for the EC50 in series [3] and in [9] were more than 25 µM and 6.16 µM, respectively. Moreover, in series [4] (setting [11]), the “24 hr Dox Inducible IL2FLGluc 293FRT/TO: IL2/PD1” value was 2.9. Besides, the “Liver Microsome Stability (Multiple Species): Monkey - % Remaining after 30 min w/NADPH” value in series [5] was determined as 0.09%. For the same compound, the “Liver Microsome Stability (Multiple Species): Mouse - % Remaining after 30 min w/NADPH” value in [6] was found to be 4.94%. In addition, the “Liver Microsome Stability (Multiple Species): Rat - % Remaining after 30 min w/NADPH” value in [8] came out at 0.82%.

Turning to `O=C(Nc1nc(CCc2ccc(OC(F)(F)F)cn2)cs1)c1cccn1Cc1ccncc1` [Compound E7, 1-(pyridin-4-ylmethyl)-N-(4-(2-(5-(trifluoromethoxy)pyridin-2-yl)ethyl)thiazol-2-yl)-1H-pyrrole-2-carboxamide], the IC50 in series [1] (mean) was 2.76 µM; in [4] (mean), 1.19 µM; in series [7] (mean) it was 0.158 µM; in series [10] (mean) it was 0.947 µM. Also, in series [1] (setting [11]), the “24 hr Dox Inducible TNFaFLGluc 293FRT/TO: TNF/PD1” value stood at 17.4. Also, the “Liver Microsome Stability (Multiple Species): Human - % Remaining after 30 min w/NADPH” value in series [2] was determined as 0.1%. Besides, the concentration for a half-maximal effect (EC50) in series [3] and in series [9] was more than 25 µM in each case. The “24 hr Dox Inducible IL2FLGluc 293FRT/TO: IL2/PD1” value in series [4] (setting [11]) stood at 7.5. Besides, the “Liver Microsome Stability (Multiple Species): Monkey - % Remaining after 30 min w/NADPH” value in [5] was determined as 0.23%. In addition, in [6], the “Liver Microsome Stability (Multiple Species): Mouse - % Remaining after 30 min w/NADPH” value was 0.38%. In series [8], the “Liver Microsome Stability (Multiple Species): Rat - % Remaining after 30 min w/NADPH” value stood at 0.28%.

`Cc1cc(C(=O)Nc2nc([C@H]3CCCN3c3ccc(OC4CCN(C(N)=O)CC4)cc3)cs2)n(Cc2ccnc(F)c2)c1` [Compound A166, (R)-4-(4-(2-(2-(1-((2-fluoropyridin-4-yl)methyl)-4-methyl-1H-pyrrole-2-carboxamido)thiazol-4-yl)pyrrolidin-1-yl)phenoxy)piperidine-1-carboxamide]: the IC50 in series [1] stood at 0.744 µM; in series [4] it was 0.109 µM; in series [7], 0.0528 µM; in series [10], 0.0937 µM. Moreover, the “24 hr Dox Inducible TNFaFLGluc 293FRT/TO: TNF/PD1” value in [1] is 14.1. The “Liver Microsome Stability (Multiple Species): Human - % Remaining after 30 min w/NADPH” value in [2] is 64.3%. Also, the results for the EC50 in [3] and in series [9] were more than 25 µM and 2.21 µM, respectively. Besides, the “24 hr Dox Inducible IL2FLGluc 293FRT/TO: IL2/PD1” value in [4] was 2.1. Also, the “Liver Microsome Stability (Multiple Species): Monkey - % Remaining after 30 min w/NADPH” value in series [5] is given as 72.2%. In addition, the “Liver Microsome Stability (Multiple Species): Mouse - % Remaining after 30 min w/NADPH” value in [6] is listed as 63.9%. Further, the “Liver Microsome Stability (Multiple Species): Rat - % Remaining after 30 min w/NADPH” value in series [8] is 78.7%.
